Entries after “also recorded” stand apart in the source; their conditions may differ.
Legend:
avian IAV FPV = type: cell-based
human IAV PR8 = type: cell-based
[1] = tested on: polymerase subunits PB1, PB2, PA and NP of the avian IAV FPV-Rostock; type: cell-based, A/FPV/Rostock/34 (H7N1)
[2] = tested on: PB1, NS1, NP and M1 of IAV; type: cell-based

Cc1ccc(NC(=O)c2ccc(CN3CCN(C)CC3)cc2)cc1Nc1nccc(-c2cccnc2)n1 [Imatinib]
replication (progeny virus yields) of avian IAV FPV (avian IAV FPV): interferes with replication properties of the avian IAV FPV in a concentration dependent manner; also recorded: only efficient upon low dose infection
replication (progeny virus yields) of human IAV PR8 (human IAV PR8): absolutely independent of the tyrosine kinase activity of c-Abl
viral polymerase activity (luciferase) [1]: neither detect an impact
viral protein expression [2]: neither detect an impact

— patent US9637523B2 (priority 2012, dated 2017)
